Patent US20050049241A1, “Pyridyl piperazinyl ureas” (priority 2003, published 2005)
Values belong to the compound of their own block, whether it stands above or below them.

Tests used:
guinea pig pain models = conditions: guinea pig models of inflammatory and neuropathic pain; cited from earlier work
guinea pigs = conditions: cough induced by capsaicin and citric acid; cited from earlier work
VR1 [1] = target: T1, VR1 (Homo sapiens, UniProt Q8NER1); test: Functional assay: block of capsaicin-induced Ca2+ influx (FLIPR, hVR1/HEK293 cells); assay type: cell-based; set-up: expressed in transfected cells; host or cells: HEK293
T1 sequence (Q8NER1 whole entry): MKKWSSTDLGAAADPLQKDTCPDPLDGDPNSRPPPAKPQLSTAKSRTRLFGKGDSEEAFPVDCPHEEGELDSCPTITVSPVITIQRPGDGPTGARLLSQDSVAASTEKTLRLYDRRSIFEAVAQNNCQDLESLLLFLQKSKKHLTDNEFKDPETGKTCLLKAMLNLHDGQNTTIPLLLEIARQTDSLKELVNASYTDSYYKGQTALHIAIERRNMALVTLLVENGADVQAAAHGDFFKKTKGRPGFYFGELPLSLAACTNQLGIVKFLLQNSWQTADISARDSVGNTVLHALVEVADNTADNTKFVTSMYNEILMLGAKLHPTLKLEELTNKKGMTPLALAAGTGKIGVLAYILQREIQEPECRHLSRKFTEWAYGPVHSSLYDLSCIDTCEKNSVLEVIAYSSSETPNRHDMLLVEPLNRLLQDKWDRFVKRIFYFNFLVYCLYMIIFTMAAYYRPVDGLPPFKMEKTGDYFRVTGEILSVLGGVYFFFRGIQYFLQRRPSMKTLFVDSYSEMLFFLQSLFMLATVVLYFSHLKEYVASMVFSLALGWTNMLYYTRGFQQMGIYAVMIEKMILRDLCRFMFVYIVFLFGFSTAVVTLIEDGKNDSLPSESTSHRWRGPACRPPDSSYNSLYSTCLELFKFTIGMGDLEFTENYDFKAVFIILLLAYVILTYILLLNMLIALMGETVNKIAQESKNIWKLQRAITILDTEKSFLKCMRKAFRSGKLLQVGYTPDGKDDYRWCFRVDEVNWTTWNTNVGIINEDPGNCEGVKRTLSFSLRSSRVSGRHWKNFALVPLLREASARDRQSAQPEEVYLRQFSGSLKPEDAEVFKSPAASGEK
Description: Functional assay: block of capsaicin-induced Ca^2+ influx
The contents of the wells were mixed 3 times (40 μL mix volume) immediately after the additions were made.

VR1 [2] = target: T1, VR1; test: [3H] Resiniferatoxin binding assay on cell membranes; set-up: expressed in transfected cells; inferred to be hVR1/HEK293; conditions: [3H] RTX displacement, 37° C. 60 min

SMILES: Oc1cc2c(cc1O)CN(C(=S)NCCc1ccc(Cl)cc1)CCC2 [Capsazepine]
reversal of mechanical hyperalgesia (guinea pig pain models): reverses mechanical hyperalgesia
inhibition of cough (guinea pigs): inhibits cough induced by capsaicin and citric acid

SMILES: O=C(Nc1ccc(C(F)(F)F)cn1)N1CCN(c2ncccc2Cl)CC1 [Comparative A, 4-(3-chloro-pyridin-2-yl)-piperazine-1-carboxylic acid (5-trifluoromethyl-pyridin-2-yl)-amide]
IC50 (VR1 [1]; block of Ca2+ influx induced by 15 nM capsaicin, hVR1/HEK293, 3 and 60 min incubation data combined): 120 nM
Ki (VR1 [2]): 1020 nM

capsaicin concentration at ~EC80 (VR1 [1]; agonist, human recombinant VR1 in hVR1/HEK293): ~15 nM
SMILES: COc1cc(CNC(=O)CCCC/C=C/C(C)C)ccc1O [capsaicin]
